Data on 38 molecules can be found in patent US12054483B2, “Small molecule inhibitors of DYRK/CLK and uses thereof” (Arizona Board of Regents on Behalf of the University of …, priority 2018, dated 2024).

pKd: −log10 of the molar value.

The assay has as its target DYRK1A (Homo sapiens, UniProt Q13627). Nature of the assay: Affinity testing of compounds with DYRK1A (KD). Type of assay: binding. The conditions noted are these: DYRK1A affinity key classes.
For the molecule `Nc1cc(-c2ccc3ncc(-c4ccc(CN5CCOCC5)cc4)n3n2)ccn1` [Compound 108, 4-(3-(4-(morpholinomethyl)phenyl)imidazo[1,2-b]pyridazin-6-yl)pyridin-2-amine], the pKd (as a rule, the negative decadic logarithm of the Kd, by convention in mol/L) was 7.00 to 9.30.

With `Fc1cnccc1-c1ccc2ncc(-c3ccc(CN4CCCCC4)cc3)n2n1` [Compound 109, 6-(3-fluoropyridin-4-yl)-3-(4-(piperidin-1-ylmethyl)phenyl)imidazo[1,2-b]pyridazine], the pKd was 5.00 to 6.30.

On to `Nc1cc(-c2ccc3ncc(-c4ccc(CN5CCCCC5)cc4)n3n2)ccn1` [Compound 110, 4-(3-(4-(piperidin-1-ylmethyl)phenyl)imidazo[1,2-b]pyridazin-6-yl)pyridin-2-amine], for which the pKd was 7.00 to 9.30.

`Nc1cc(-c2ccn3ncc(-c4ccc(CN5CCOCC5)cc4)c3n2)ccn1` [Compound 112, 4-(3-(4-(morpholinomethyl)phenyl)pyrazolo[1,5-a]pyrimidin-5-yl)pyridin-2-amine] showed a pKd of 5.00 to 6.30.

As for `O=c1cc(-c2ccn3ncc(-c4ccc(CN5CCOCC5)cc4)c3n2)cc[nH]1` [Compound 113, 4-(3-(4-(morpholinomethyl)phenyl)pyrazolo[1,5-a]pyrimidin-5-yl)pyridin-2(1H)-one], the pKd is 5.00 to 6.30.

`Nc1cc(-c2ccn3ncc(-c4ccc(CN5CCOCC5)s4)c3n2)ccn1` [Compound 114, 4-(3-(5-(morpholinomethyl)thiophen-2-yl)pyrazolo[1,5-a]pyrimidin-5-yl)pyridin-2-amine] had a pKd of 6.30 to 7.00.

Consider `Cc1nc2ccc(-c3ccncc3)nc2n1-c1ccc(CO)cc1` [Compound 115, (4-(2-methyl-5-(pyridin-4-yl)-3H-imidazo[4,5-b]pyridin-3-yl)phenyl)methanol], for which the pKd is 7.00 to 9.30.

`CC(=O)N1CCN(Cc2ccc(-n3c(C)nc4ccc(-c5ccncc5)nc43)cc2)CC1` [Compound 116, 1-(4-(4-(2-methyl-5-(pyridin-4-yl)-3H-imidazo[4,5-b]pyridin-3-yl)benzyl)piperazin-1-yl)ethan-1-one] had a negative logarithm of the Kd (pKd) of 7.00 to 9.30.

`Cc1nc2ccc(-c3ccncc3)nc2n1-c1ccc(CN2[C@H](C)COC[C@@H]2C)cc1` [Compound 117, (3S,5R)-3,5-dimethyl-4-(4-(2-methyl-5-(pyridin-4-yl)-3H-imidazo[4,5-b]pyridin-3-yl)benzyl)morpholine] gave a pKd of 6.30 to 7.00.

`Cc1nc2ccc(-c3ccncc3)nc2n1-c1ccc(CN2C[C@H](C)O[C@@H](C)C2)cc1` [Compound 118, (2S,6S)-2,6-dimethyl-4-(4-(2-methyl-5-(pyridin-4-yl)-3H-imidazo[4,5-b]pyridin-3-yl)benzyl)morpholine] gave a pKd of 7.00 to 9.30.

Consider `Cc1nc2ccc(-c3ccncc3)nc2n1-c1ccc(CN2C[C@@H](C)N(C)[C@@H](C)C2)cc1` [Compound 119, 2-methyl-5-(pyridin-4-yl)-3-(4-(((3R,5S)-3,4,5-trimethylpiperazin-1-yl)methyl)phenyl)-3H-imidazo[4,5-b]pyridine], for which the pKd was 7.00 to 9.30.

`Cc1nc2ccc(-c3ccncc3)nc2n1-c1ccc(CN2CCOC(C)(C)C2)cc1` [Compound 120, 2,2-dimethyl-4-(4-(2-methyl-5-(pyridin-4-yl)-3H-imidazo[4,5-b]pyridin-3-yl)benzyl)morpholine] gave a pKd of 7.00 to 9.30.

With `Cc1nc2ccc(-c3ccncc3)nc2n1-c1ccc(CN2CCC3(COC3)C2)cc1` [Compound 121, 6-(4-(2-methyl-5-(pyridin-4-yl)-3H-imidazo[4,5-b]pyridin-3-yl)benzyl)-2-oxa-6-azaspiro[3.4]octane], the pKd was 7.00 to 9.30.

`Cc1nc2ccc(-c3ccncc3)nc2n1-c1ccc(CN2CC3CCC(C2)O3)cc1` [Compound 122, 3-(4-(2-methyl-5-(pyridin-4-yl)-3H-imidazo[4,5-b]pyridin-3-yl)benzyl)-8-oxa-3-azabicyclo[3.2.1]octane] gave a pKd of 7.00 to 9.30.

In turn, `Cc1nc2ccc(-c3ccncc3)nc2n1-c1ccc(CN2[C@@H]3COC[C@H]2CC(=O)C3)cc1` [Compound 123, (1R,5S)-9-(4-(2-methyl-5-(pyridin-4-yl)-3H-imidazo[4,5-b]pyridin-3-yl)benzyl)-3-oxa-9-azabicyclo[3.3.1]nonan-7-one] gave a pKd of 6.30 to 7.00.

The molecule `Cc1nc2ccc(-c3ccncc3)nc2n1-c1ccc(CN2C[C@@H]3C[C@@H]2CO3)cc1` [Compound 124, (1S,4R)-5-(4-(2-methyl-5-(pyridin-4-yl)-3H-imidazo[4,5-b]pyridin-3-yl)benzyl)-2-oxa-5-azabicyclo[2.2.1]heptane] showed a pKd of 7.00 to 9.30.

In turn, `Cc1nc2ccc(-c3ccncc3)nc2n1-c1ccc(CN2CCN(C)CC2)cc1` [Compound 125, 2-methyl-3-(4-((4-methylpiperazin-1-yl)methyl)phenyl)-5-(pyridin-4-yl)-3H-imidazo[4,5-b]pyridine] showed a pKd of 7.00 to 9.30.

Regarding `Cc1nc2ccc(-c3ccncc3)nc2n1-c1ccc(CN2CCS(=O)(=O)CC2)cc1` [Compound 126, 4-(4-(2-methyl-5-(pyridin-4-yl)-3H-imidazo[4,5-b]pyridin-3-yl)benzyl)thiomorpholine 1,1-dioxide], the pKd was 7.00 to 9.30.

Consider `Cc1nc2ccc(-c3ccnc(N)c3)c(F)c2n1-c1ccc(N2CCOCC2)cc1` [Compound 127, 4-(7-fluoro-2-methyl-1-(4-morpholinophenyl)-1H-benzo[d]imidazol-6-yl)pyridin-2-amine], for which the pKd was 7.00 to 9.30.

Molecule `Cc1nc2ncc(-c3ccnc(N)c3)nc2n1-c1ccc(N2CCOCC2)cc1` [Compound 128, 4-(2-methyl-1-(4-morpholinophenyl)-1H-imidazo[4,5-b]pyrazin-6-yl)pyridin-2-amine] showed a pKd of 5.00 to 6.30.

The molecule `Cc1nc2ncc(-c3ccncc3)nc2n1-c1ccc(N2CCOCC2)cc1` [Compound 129, 4-(4-(2-methyl-6-(pyridin-4-yl)-1H-imidazo[4,5-b]pyrazin-1-yl)phenyl)morpholine] had a pKd of 5.00 to 6.30.

In the case of `Cc1nc2ncc(-c3ccnc(N)c3)nc2n1-c1ccc2[nH]cnc2c1` [Compound 130, 4-(1-(1H-benzo[d]imidazol-5-yl)-2-methyl-1H-imidazo[4,5-b]pyrazin-6-yl)pyridin-2-amine], the pKd is 6.30 to 7.00.

The molecule `Cc1nc2ncc(-c3ccncc3)nc2n1-c1ccc2[nH]cnc2c1` [Compound 131, 1-(1H-benzo[d]imidazol-5-yl)-2-methyl-6-(pyridin-4-yl)-1H-imidazo[4,5-b]pyrazine] had a pKd of 6.30 to 7.00.

Regarding `Cc1nc2ccc(-c3ccncc3)nc2n1-c1ccc(N2CCN(C)CC2)cc1` [Compound 132, 2-methyl-3-(4-(4-methylpiperazin-1-yl)phenyl)-5-(pyridin-4-yl)-3H-imidazo[4,5-b]pyridine], the pKd is 7.00 to 9.30.

For `Cc1nc2ccc(-c3ccncc3)nc2n1-c1ccc(CN2CCOCC2)nc1` [Compound 133, 4-((5-(2-methyl-5-(pyridin-4-yl)-3H-imidazo[4,5-b]pyridin-3-yl)pyridin-2-yl)methyl)morpholine], the pKd was 6.30 to 7.00.

`Cc1nc2ccc(-c3ccncc3)nc2n1-c1ccc(N2CCOCC2)cc1` [Compound 134, 4-(4-(2-methyl-5-(pyridin-4-yl)-3H-imidazo[4,5-b]pyridin-3-yl)phenyl)morpholine] gave a pKd of 6.30 to 7.00.

With `Cc1nc2ccc(-c3ccncc3)nc2n1-c1ccc(N2CCN(C)CC2)c(F)c1` [Compound 135, 3-(3-fluoro-4-(4-methylpiperazin-1-yl)phenyl)-2-methyl-5-(pyridin-4-yl)-3H-imidazo[4,5-b]pyridine], the pKd is 7.00 to 9.30.

`Cc1nc2ccc(-c3ccncc3)nc2n1-c1ccc2[nH]ccc2c1` [Compound 136, 3-(1H-indol-5-yl)-2-methyl-5-(pyridin-4-yl)-3H-imidazo[4,5-b]pyridine] gave a pKd of 7.00 to 9.30.

In turn, `Cc1nc2ccc(-c3ccncc3)nc2n1-c1cnc2[nH]ccc2c1` [Compound 137, 2-methyl-5-(pyridin-4-yl)-3-(1H-pyrrolo[2,3-b]pyridin-5-yl)-3H-imidazo[4,5-b]pyridine] showed a pKd of 7.00 to 9.30.

Consider `Cc1nc2cc(-n3c(C)nc4ccc(-c5ccncc5)nc43)ccc2[nH]1` [Compound 138, 2-methyl-3-(2-methyl-1H-benzo[d]imidazol-5-yl)-5-(pyridin-4-yl)-3H-imidazo[4,5-b]pyridine], for which the pKd is 7.00 to 9.30.

`Cc1c2cc(-n3c(C)nc4ccc(-c5ccncc5)nc43)ccc2nn1C` [Compound 139, 3-(2,3-dimethyl-2H-indazol-5-yl)-2-methyl-5-(pyridin-4-yl)-3H-imidazo[4,5-b]pyridine]: the pKd is 7.00 to 9.30.

Turning to `Cc1nc2ccc(-c3ccncc3)nc2n1-c1cccc(CN2CCOCC2)c1` [Compound 140, 4-(3-(2-methyl-5-(pyridin-4-yl)-3H-imidazo[4,5-b]pyridin-3-yl)benzyl)morpholine], the pKd was 7.00 to 9.30.

With `Cc1nc2ccc(-c3ccncc3)nc2n1-c1ccc(Cl)cn1` [Compound 141, 3-(5-chloropyridin-2-yl)-2-methyl-5-(pyridin-4-yl)-3H-imidazo[4,5-b]pyridine], the pKd is 7.00 to 9.30.

Turning to `COc1cc(-n2c(C)nc3ccc(-c4ccncc4)nc32)ccc1CN1CCOCC1` [Compound 142, 4-(2-methoxy-4-(2-methyl-5-(pyridin-4-yl)-3H-imidazo[4,5-b]pyridin-3-yl)benzyl)morpholine], the pKd is 6.30 to 7.00.

Regarding `Cc1nc2ccc(-c3ccnc4[nH]ccc34)nc2n1-c1ccc(N2CCOCC2)c(F)c1` [Compound 143, 4-(2-fluoro-4-(2-methyl-5-(1H-pyrrolo[2,3-b]pyridin-4-yl)-3H-imidazo[4,5-b]pyridin-3-yl)phenyl)morpholine], the pKd was 7.00 to 9.30.

In turn, `Cc1nc2ccc(-c3ccnc(N)c3)nc2n1-c1ccc(N2CCOCC2)c(F)c1` [Compound 144, 4-(3-(3-fluoro-4-morpholinophenyl)-2-methyl-3H-imidazo[4,5-b]pyridin-5-yl)pyridin-2-amine] had a pKd of 7.00 to 9.30.

As to `Cc1cc(-c2ccc3nc(C)n(-c4ccc(N5CCOCC5)c(F)c4)c3n2)ccn1` [Compound 145, 4-(2-fluoro-4-(2-methyl-5-(2-methylpyridin-4-yl)-3H-imidazo[4,5-b]pyridin-3-yl)phenyl)morpholine], the pKd is 7.00 to 9.30.

The molecule `Cc1nc2ccc(-c3cnn(C)c3)nc2n1-c1ccc(N2CCOCC2)c(F)c1` [Compound 146, 4-(2-fluoro-4-(2-methyl-5-(1-methyl-1H-pyrazol-4-yl)-3H-imidazo[4,5-b]pyridin-3-yl)phenyl)morpholine] had a pKd of 7.00 to 9.30.
